Molecular target: T1, Hsp90α N-terminal domain (Hsp90N) (Homo sapiens, UniProt P07900)
T1 construct: gene HSP90AA1
Assay: competition binding by real-time in-cell […] NMR against spy ligand […] (Kd back-calculated)
Format: cell-based

Kd: 0.6 ± 0.1 nM
Compound: CCNC(=O)c1cc2c(-c3cc(OCCN(CC)CC)c(Cl)cc3Cl)nc(N)nc2s1 [compound 5]

Reference: article PMC10823471, “Ligand-Based Competition Binding by Real-Time ^19F NMR in Human Cells” (Journal of Medicinal Chemistry, 2024)
